Test results from patent publication EP0560235B1, “Condensed heterocyclic ketone derivatives, their production and use” (priority 1992, dated 1993).

How the values were obtained:
[1] = biological target: T1, cholinesterase (Rattus norvegicus, UniProt P37136); assay: Cholinesterase inhibitory activity assayed with (acetyl-[3H])-acetylcholine, S1 fraction of cerebral cortex homogenate; format: biochemical; conditions: S1 fraction of male Wistar rat cerebral cortex homogenate; (acetyl-[3H])-acetylcholine substrate; 30 minutes incubation; read-out: Acetylcholinesterase inhibitory activity I C50
T1 construct: using the S1 fraction of a homogenate of male Wistar rat cerebral cortex as the cholinesterase source; from tissue; host or cells: male Wistar rat cerebral cortex, S1 fraction of homogenate
Protocol: The cholinesterase inhibitory activity of the compound of this invention was assayed with (acetyl-[^3H])-acetylcholine. More specifically, using the S1 fraction of a homogenate of male Wistar rat cerebral cortex as the cholinesterase source, (acetyl[^3H])-acetylcholine as the substrate and the compound of this invention as the test sample were added. The mixture was incubated for 30 minutes, then the reaction was terminated, to which was added a toluene-based scintillant, then the mixture was shaken. The reaction product [^3H]-acetic acid was transferred to the toluene layer, which was subjected to determination of cholinesterase activity by counting with a liquid scintillation counter.

[2] = biological target: T2, serotonin (5-HT) uptake (Rattus norvegicus, UniProt P31652); assay: Monoamine uptake into crude synaptosomal preparations (P2) of cerebral cortex and hippocampus, [3H]-5-HT; format: biochemical, Rats
T2 construct: Crude synaptosomal preparations (P2) were isolated after differential centrifugation; from tissue; host or cells: rat cerebral cortex and hippocampus, crude synaptosomal preparation (P2)
Protocol: Effects of the compound of this invention on monoamine uptake were investigated using [^3H]-norepinephirine(NE) and [^3H]-serotonin (5-HT). Rats were sacrificed by decapitation. The cerebral cortex and hippocampus were removed and homogenized in 10-15 volumes (W/V) of an ice-cold medium containing 0.32 M sucrose. Crude synaptosomal preparations (P2) were isolated after differential centrifugation at 1000 x g for 10 min and 20,000 x g for 30 min at 4°C. […] Synaptosomal membrane suspension (900 µl) was preincubated with the test compound dissolved in DMSO solution at 37°C for 5 min. […] Five minutes later, the reaction was stopped by the addition of 4 ml of ice-cold KRB and the reaction mixture was filtered through Whatman GF/B. Filters were washed twice with 4 ml of KRB and the radioactivity bound was counted with liquid scintillant. […] All compounds were tested at 10^-8, 10^-7, 10^-6 and 10^-5M.

T1 sequence (P37136 32-614): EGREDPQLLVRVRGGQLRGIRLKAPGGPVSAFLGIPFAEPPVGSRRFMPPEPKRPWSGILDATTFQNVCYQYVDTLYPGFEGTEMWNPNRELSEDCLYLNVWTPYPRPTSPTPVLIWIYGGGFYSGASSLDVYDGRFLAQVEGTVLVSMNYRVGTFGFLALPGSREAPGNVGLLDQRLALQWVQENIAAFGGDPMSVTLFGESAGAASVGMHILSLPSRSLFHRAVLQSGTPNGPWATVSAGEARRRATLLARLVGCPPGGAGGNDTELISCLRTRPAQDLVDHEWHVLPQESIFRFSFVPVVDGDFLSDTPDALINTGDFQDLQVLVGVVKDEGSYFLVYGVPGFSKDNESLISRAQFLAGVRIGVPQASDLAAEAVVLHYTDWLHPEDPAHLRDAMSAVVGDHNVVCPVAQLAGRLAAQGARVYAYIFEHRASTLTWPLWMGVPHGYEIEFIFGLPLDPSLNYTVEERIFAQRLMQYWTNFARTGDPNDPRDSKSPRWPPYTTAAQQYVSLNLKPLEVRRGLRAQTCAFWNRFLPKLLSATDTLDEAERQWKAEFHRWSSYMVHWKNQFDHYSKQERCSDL
T2 sequence (P31652 whole entry): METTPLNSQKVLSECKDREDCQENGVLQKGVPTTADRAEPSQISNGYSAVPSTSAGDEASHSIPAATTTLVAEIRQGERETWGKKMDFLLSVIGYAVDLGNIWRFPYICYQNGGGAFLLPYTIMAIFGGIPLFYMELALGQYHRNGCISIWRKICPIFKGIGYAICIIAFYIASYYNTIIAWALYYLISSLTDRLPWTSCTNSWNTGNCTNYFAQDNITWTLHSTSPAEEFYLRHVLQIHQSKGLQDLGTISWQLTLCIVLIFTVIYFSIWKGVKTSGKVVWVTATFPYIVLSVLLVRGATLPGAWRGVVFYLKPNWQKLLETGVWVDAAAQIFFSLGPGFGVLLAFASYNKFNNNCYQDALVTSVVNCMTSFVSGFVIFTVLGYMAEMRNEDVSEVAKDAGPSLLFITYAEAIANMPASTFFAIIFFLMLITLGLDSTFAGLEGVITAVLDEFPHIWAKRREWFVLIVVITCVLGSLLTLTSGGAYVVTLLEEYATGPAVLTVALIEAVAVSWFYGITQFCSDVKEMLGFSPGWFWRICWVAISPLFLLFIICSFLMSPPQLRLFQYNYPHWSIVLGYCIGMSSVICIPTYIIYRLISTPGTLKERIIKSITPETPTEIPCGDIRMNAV

`O=C(CCN1CCN(Cc2ccccc2)CC1)c1ccc2c(c1)CCN(C(=O)c1ccccc1)CC2` [17-3] showed an IC50 [1] of 0.0825 µM.
`COc1ccccc1CN1CCc2ccc(C(=O)CCN3CCN(Cc4ccccc4)CC3)cc2CC1` [14-21] gave an IC50 [1] of 0.0226 µM.
`COc1ccc(CN2CCc3ccc(C(=O)CCN4CCN(Cc5ccccc5)CC4)cc3CC2)cc1` [14-29] showed an IC50 [1] of 0.0257 µM and an IC50 [2] of 0.0544 µM.
Work on `O=C(CCN1CCN(Cc2ccccc2)CC1)c1ccc2c(c1)CCN2Cc1ccccc1` [14-1] yielded an IC50 [2] of 0.416 µM.
For `CCN1CCc2ccc(C(=O)CCN3CCN(Cc4ccccc4)CC3)cc2CC1` [14-5], the IC50 [1] was 0.0188 µM.
With `COc1cccc(CN2CCc3ccc(C(=O)CCN4CCN(Cc5ccccc5)CC4)cc3CC2)c1` [14-27] the IC50 [1] was 0.133 µM.
In the case of `Cc1cccc(CN2CCc3ccc(C(=O)CCN4CCN(Cc5ccccc5)CC4)cc3CC2)c1` [14-25], the IC50 [1] is reported as 0.0696 µM.
`O=C(CCN1CCN(Cc2ccccc2)CC1)c1ccc2c(c1)CNCCC2` [13-3] showed an IC50 [1] of 0.0789 µM.
Molecule `O=C(CCN1CCN(Cc2ccccc2)CC1)c1ccc2c(c1)CN(Cc1ccccc1)CCC2` [14-2] has an IC50 [1] of 0.538 µM.
In the case of `O=C(CCN1CCN(Cc2ccccc2)CC1)c1ccc2c(c1)CCN(Cc1cccc(F)c1)CC2` [14-20], the IC50 [1] is reported as 0.0478 µM.
In the case of `O=C(CCN1CCN(Cc2ccccc2Cl)CC1)c1ccc2c(c1)CCN(Cc1ccccc1)CC2` [14-6], the IC50 [1] is reported as 0.113 µM and the IC50 [2] is reported as 0.0345 µM.
`O=C(CCN1CCN(Cc2cccc(Cl)c2)CC1)c1ccc2c(c1)CCN(Cc1ccccc1)CC2` [14-7] was tested, and the IC50 [2] was 0.0421 µM.
Work on `Cc1ccc(CN2CCc3ccc(C(=O)CCN4CCN(Cc5ccccc5)CC4)cc3CC2)cc1` [14-23] yielded an IC50 [1] of 0.0661 µM and an IC50 [2] of 0.0583 µM.
In the case of `O=C(CCN1CCN(Cc2ccccc2)CC1)c1ccc2c(c1)CCN(Cc1cccc(Cl)c1)CC2` [14-4], the IC50 [1] is reported as 0.147 µM.
`COc1ccc(CN2CCc3ccc(C(=O)CCN4CCN(Cc5ccccc5)CC4)cc3CC2)cc1OC` [14-22] gave an IC50 [1] of 0.0215 µM.
`CN1CCc2ccc(C(=O)CCN3CCN(Cc4ccccc4)CC3)cc2CC1` [compound 18] showed an IC50 [1] of 0.0338 µM.
With `COc1ccc(CCN2CCc3ccc(C(=O)CCN4CCN(Cc5ccccc5)CC4)cc3CC2)cc1OC` [14-36] the IC50 [1] was 0.0168 µM and the IC50 [2] was 0.0133 µM.
`CC(C)CN1CCc2ccc(C(=O)CCN3CCN(Cc4ccccc4)CC3)cc2CC1` [14-33] was tested, and the IC50 [1] was 0.0341 µM and the IC50 [2] was 0.0559 µM.
With `O=C(CCN1CCN(Cc2ccccc2)CC1)c1ccc2c(c1)CCN(Cc1ccc(Cl)cc1)CC2` [14-10] the IC50 [1] was 0.167 µM.
For `CC(=O)N1CCc2cc(C(=O)CCN3CCN(Cc4ccccc4)CC3)ccc21` [compound 16], the IC50 [1] was 0.0251 µM.
For `Cc1ccccc1CN1CCc2ccc(C(=O)CCN3CCN(Cc4ccccc4)CC3)cc2CC1` [14-14], the IC50 [1] was 0.0636 µM.
For `O=C(CCN1CCN(Cc2ccccc2)CC1)c1ccc2c(c1)CCN(CCc1ccccc1)CC2` [14-31], the IC50 [1] was 0.033 µM and the IC50 [2] was 0.0305 µM.
`N#Cc1ccc(CN2CCc3ccc(C(=O)CCN4CCN(Cc5ccccc5)CC4)cc3CC2)cc1` [14-19] showed an IC50 [1] of 0.0339 µM.
